IC50 data for 63 molecules are collected here from patent US9902739B2, “Small molecule inhibitors of G protein coupled receptor 6 kinases polypeptides” (Mayo Foundation for Medical Education and Research, priority 2014, dated 2018).

pIC50: −log10 of the molar value.

T1 sequence (P43250 whole entry): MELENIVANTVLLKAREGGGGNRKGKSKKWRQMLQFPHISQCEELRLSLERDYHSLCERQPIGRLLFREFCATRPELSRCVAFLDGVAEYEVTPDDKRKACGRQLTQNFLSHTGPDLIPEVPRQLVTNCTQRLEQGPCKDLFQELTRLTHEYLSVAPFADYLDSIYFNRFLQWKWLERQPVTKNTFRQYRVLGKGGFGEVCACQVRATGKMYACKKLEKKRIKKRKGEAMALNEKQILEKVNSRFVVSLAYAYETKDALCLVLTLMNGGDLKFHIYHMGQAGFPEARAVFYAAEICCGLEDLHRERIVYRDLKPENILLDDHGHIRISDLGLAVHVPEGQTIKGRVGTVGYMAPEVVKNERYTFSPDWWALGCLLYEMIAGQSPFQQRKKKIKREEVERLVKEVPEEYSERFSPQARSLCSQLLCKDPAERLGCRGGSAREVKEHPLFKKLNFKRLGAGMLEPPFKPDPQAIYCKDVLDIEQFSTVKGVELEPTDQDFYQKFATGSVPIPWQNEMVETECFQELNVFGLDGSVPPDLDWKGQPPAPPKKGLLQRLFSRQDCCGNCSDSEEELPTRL

This assay has as its target T1, GRK6, recombinant full-length GST-tagged human protein (Homo sapiens, UniProt P43250).
T1 construct: Enzyme: 20 nM GRK6, recombinant full-length GST-tagged human protein; GST
As to the kind of experiment: GRK6 assay, IC50 determination (8-point concentration-response). The assay is classed as biochemical. The settings on record: Series 1 (Table 11); 20 nM GRK6, ATP 12 μM (Km), Peptide 216 1 μM, incubation 7 h. The procedure: The following assay conditions were used.
Buffer: 50 mM TRIS-HCl, pH 7.5, 5 mM MgCl2, 2 mM DTT, 0.01% Triton X-100, 10 μM Na3VO4, 10 μM b-GP, 1% DMSO
Enzyme: 20 nM GRK6, recombinant full-length GST-tagged human protein
Peptide substrate (Peptide 216): 1 μM
One hundred two compounds (1-1-1-102) were further characterized by determining IC50 values in a GRK6 assay. This screen has been previously described in WO 2013/063458, which is incorporated by reference in its entirety herein. Briefly, the following activities were performed: 8-point concentration-response determinations in singlicate wells (top concentration=60 μM, 3-fold dilution steps); Repeat tests for QC failed or inconclusive compounds; and Repeat tests (titrate down) for compounds with >50% inhibition at all tested concentrations.
Twelve compounds (2-1-2-12) were further characterized by determining the IC50 values in a GRK6 assay. This screen has been previously described in WO 2013/063458, which is incorporated by reference in its entirety herein. Specific activities were performed as described above (Example 18).
Thirty-six compounds (3-1-3-36) were further characterized by determining the IC50 values in a GRK6 assay. This screen has been previously described in WO 2013/063458, which is incorporated by reference in its entirety herein. Specific activities were performed as described above (Example 18).
Fifty-four compounds (4-1-4-54) were further characterized by determining the IC50 values in a GRK6 assay. This screen has been previously described in WO 2013/063458, which is incorporated by reference in its entirety herein. Specific activities were performed as described above (Example 18).
As a reminder, the pIC50 is the negative decadic logarithm of the IC50, by convention in mol/L. On to `O=C(O)CSc1nnc(-c2ccc(-c3ccc(F)c(Cl)c3)o2)[nH]1` [Compound 1-29], for which the pIC50 is 6.50. In the case of `O=C(O)CSc1nnc(-c2ccc(-c3ccc4ncccc4c3)o2)[nH]1` [Compound 1-30, 2-((3-(5-(quinolin-6-yl)furan-2-yl)-1H-1,2,4-triazol-5-yl)thio)acetic acid], the pIC50 was 6.50.

On to `COc1ccc2cc(-c3oc(-c4nnc(SCC(=O)O)[nH]4)cc3C#CCO)ccc2c1` [Compound 1-31], for which the pIC50 is 6.49. `O=C(O)CSc1nnc(-c2ccc(-c3cc4ccccc4o3)o2)[nH]1` [Compound 1-32]: the pIC50 was 6.49.

Take `N#Cc1c[nH]c2cc(-c3ccc(-c4nnc(SCC(=O)O)[nH]4)o3)ccc12` [Compound 1-33]: the pIC50 is 6.48.

With `CCCOc1cccc(-c2ccc(-c3nnc(SCC(=O)O)[nH]3)o2)c1` [Compound 1-34], the pIC50 is 6.47. As for `O=C(O)CSc1nnc(-c2ccc(-c3ccc4[nH]ccc4c3)o2)[nH]1` [Compound 1-35], the pIC50 is 6.46. In the case of `O=C(O)CSc1nnc(-c2ccc(-c3cccc(Cl)c3)o2)[nH]1` [Compound 1-36], the pIC50 was 6.44.

Take `Cc1ccc(-c2ccc(-c3nnc(SCC(=O)O)[nH]3)o2)cc1Cl` [Compound 1-37]: the pIC50 was 6.44.

For `CCOc1ccc2ccc(-c3ccc(-c4nnc(SCC(=O)O)[nH]4)o3)cc2c1` [Compound 1-38], the pIC50 is 6.44. The same measure for `O=C(O)CSc1nnc(-c2ccc(-c3cc(O)cc(F)c3)o2)[nH]1` [Compound 1-39]: 6.44. On to `O=C(O)CSc1nnc(-c2ccc(-c3cccc(OCc4ccc(Cl)c(Cl)c4)c3)o2)[nH]1` [Compound 1-40], for which the pIC50 was 6.44.

Turning to `Cc1cc(-c2ccc(-c3nnc(SCC(=O)O)[nH]3)o2)ccc1Cl` [Compound 1-42], the pIC50 is 6.41.

Consider `COc1cc(-c2ccc(-c3nnc(SCC(=O)O)[nH]3)o2)ccc1OCc1ccccc1` [Compound 1-43], for which the pIC50 was 6.40. As for `COc1cccc(-c2ccc(-c3nnc(SCC(=O)O)[nH]3)o2)c1` [Compound 1-44], the pIC50 is 6.40. For the molecule `NS(=O)(=O)c1cccc(-c2ccc(-c3nnc(SCC(=O)O)[nH]3)o2)c1` [Compound 1-45], the pIC50 is 6.38. In the case of `O=C(O)CSc1nnc(-c2ccc(-c3ccc4cc[nH]c4c3)o2)[nH]1` [Compound 1-46], the pIC50 is 6.38. With `O=C(O)CSc1nnc(-c2ccc(-c3ccc4occc4c3)o2)[nH]1` [Compound 1-47], the pIC50 is 6.37. On to `O=C(O)CSc1nnc(-c2ccc(-c3cccc(OCc4ccc5ccccc5c4)c3)o2)[nH]1` [Compound 1-48], for which the pIC50 is 6.34. With `COc1ccc2cc(-c3oc(-c4nnc(SCC(=O)O)[nH]4)cc3Br)ccc2c1` [Compound 1-49], the pIC50 was 6.34.

Consider `O=C(O)CSc1nnc(-c2ccc(-c3ccc(Cl)cc3)o2)[nH]1` [Compound 1-50], for which the pIC50 was 6.33. The figure for `CCOc1ccc(-c2ccc(-c3nnc(SCC(=O)O)[nH]3)o2)cc1Cl` [Compound 1-51] is 6.30; for `O=C(O)CSc1nnc(-c2ccc(-c3cccc(OCc4cccc(C(F)(F)F)c4)c3)o2)[nH]1` [Compound 1-52] it is 6.30; for `COc1ccc(/C=C/c2ccc(-c3nnc(SCC(=O)O)[nH]3)o2)cc1` [Compound 1-53] it is 6.29.

`COc1ccc(-c2ccc(-c3nnc(SCC(=O)O)[nH]3)o2)cc1OCc1ccccc1` [Compound 1-54]: the pIC50 was 6.29. The figure for `O=C(O)CSc1nnc(-c2ccc(-c3c[nH]c4ccccc34)o2)[nH]1` [Compound 1-55] is 6.25; for `O=C(O)CSc1nnc(-c2ccc(-c3cccc(C(F)(F)F)c3)o2)[nH]1` [Compound 1-56] it is 6.23; for `O=C(O)CSc1nnc(-c2ccc(-c3cc4cc(F)ccc4[nH]3)o2)[nH]1` [Compound 1-57] it is 6.22. As for `O=C(O)CSc1nnc(-c2ccc(-c3cccc(OCc4ccc(Cl)c(C(F)(F)F)c4)c3)o2)[nH]1` [Compound 1-58], the pIC50 is 6.21.

In the case of `O=C(O)CSc1nnc(-c2ccc(-c3cccc([N+](=O)[O-])c3)o2)[nH]1` [Compound 1-59], the pIC50 is 6.21. `O=C(O)CSc1nnc(-c2ccc(-c3cccc(OCc4ccc(C(F)(F)F)cc4)c3)o2)[nH]1` [Compound 1-60]: the pIC50 is 6.20. The same measure for `Cn1ccc2cc(-c3ccc(-c4nnc(SCC(=O)O)[nH]4)o3)ccc21` [Compound 1-61]: 6.20; for `O=C(O)CSc1nnc(-c2ccc(-c3cccc(O)c3)o2)[nH]1` [Compound 1-62]: 6.20; for `Cn1ncc2ccc(-c3ccc(-c4nnc(SCC(=O)O)[nH]4)o3)cc21` [Compound 1-63, 2-((5-(5-(1-methyl-1H-indazol-6-yl)furan-2-yl)-4H-1,2,4-triazol-3-yl)thio)acetic acid]: 6.16.

For the molecule `CCOc1cccc(-c2ccc(-c3nnc(SCC(=O)O)[nH]3)o2)c1` [Compound 1-64], the pIC50 is 6.15. For `Cc1ccc(-c2ccc(-c3nnc(SCC(=O)O)[nH]3)o2)cc1[N+](=O)[O-]` [Compound 1-65], the pIC50 was 6.15. Regarding `COc1ccc(-c2ccc(-c3nnc(SCC(=O)O)[nH]3)o2)cc1/C=N/OCc1ccccc1` [Compound 1-66], the pIC50 is 6.13. The same measure for `CC(C)Oc1cccc(-c2ccc(-c3nnc(SCC(=O)O)[nH]3)o2)c1` [Compound 1-67]: 6.13. The figure for `O=C(O)CSc1nnc(-c2ccc(-c3ccc(Br)cc3)o2)[nH]1` [Compound 1-68] is 6.09.

Consider `Cc1cc2cc(-c3ccc(-c4nnc(SCC(=O)O)[nH]4)o3)ccc2n1C` [Compound 1-69], for which the pIC50 is 6.08. Consider `O=C(O)CSc1nnc(-c2ccc(-c3cccc4[nH]ccc34)o2)[nH]1` [Compound 1-70], for which the pIC50 is 6.07. The same measure for `CO/N=C/c1cc(-c2ccc(-c3nnc(SCC(=O)O)[nH]3)o2)ccc1OC` [Compound 1-71]: 6.06. `O=C(O)CSc1nnc(-c2ccc(-c3ccc4c(c3)CCC(=O)N4)o2)[nH]1` [Compound 1-72]: the pIC50 is 6.01.

For the molecule `O=C(O)CSc1nnc(-c2ccc(-c3ccccc3)o2)[nH]1` [Compound 1-73], the pIC50 was 6.00. On to `CCOC(=O)c1ccc(-c2ccc(-c3nnc(SCC(=O)O)[nH]3)o2)cc1` [Compound 1-74], for which the pIC50 was 5.99. As for `O=C(O)CSc1nnc(-c2ccc(-c3ccc(C(=O)NC4CC4)cc3)o2)[nH]1` [Compound 1-75], the pIC50 is 5.98. As for `O=C(O)CSc1nnc(-c2ccc(-c3ccc(Cl)s3)o2)[nH]1` [Compound 1-76, 2-((5-(5-(5-chlorothiophen-2-yl)furan-2-yl)-4H-1,2,4-triazol-3-yl)thio)acetic acid], the pIC50 is 5.95. As to `COc1ccc2cc(-c3oc(-c4nnc(SCC(=O)O)[nH]4)cc3-c3ccccc3)ccc2c1` [Compound 1-77], the pIC50 is 5.94. In the case of `CC(C)CCn1ccc(-c2ccc(-c3nnc(SCC(=O)O)[nH]3)o2)n1` [Compound 1-78], the pIC50 was 5.93. As for `O=C(O)CSc1nnc(-c2ccc(-c3ccc4nccnc4c3)o2)[nH]1` [Compound 1-79], the pIC50 is 5.93. As to `O=C(O)CSc1nnc(-c2ccc(-c3ccc[nH]3)o2)[nH]1` [Compound 1-80], the pIC50 was 5.92. The same measure for `COc1ccc(-c2ccc(-c3nnc(SCC(=O)O)[nH]3)o2)cc1` [Compound 1-81]: 5.92; for `O=C(O)CSc1nnc(-c2ccc(-c3ccc([N+](=O)[O-])cc3)o2)[nH]1` [Compound 1-82]: 5.88. For `Nc1cccc(-c2ccc(-c3nnc(SCC(=O)O)[nH]3)o2)c1` [Compound 1-83], the pIC50 was 5.85. Take `O=C(O)CSc1nnc(-c2ccc(-c3cccc(OCc4ccc(OC(F)(F)F)c(Cl)c4)c3)o2)[nH]1` [Compound 1-84]: the pIC50 was 5.84. On to `O=C(O)CSc1nnc(-c2ccc(-c3ccccc3Cl)o2)[nH]1` [Compound 1-85], for which the pIC50 was 5.84. Turning to `O=C(O)CSc1nnc(-c2cc3ccccc3o2)[nH]1` [Compound 1-86], the pIC50 was 5.80. Consider `Cn1ccc2c(-c3ccc(-c4nnc(SCC(=O)O)[nH]4)o3)cccc21` [Compound 1-87], for which the pIC50 was 5.74. Consider `COc1ccc(-c2ccc(-c3nnc(SCC(=O)O)[nH]3)o2)cn1` [Compound 1-88], for which the pIC50 is 5.74. As to `O=C(O)CSc1nnc(-c2ccc(Cn3c4ccccc4c4ccccc43)o2)[nH]1` [Compound 1-89], the pIC50 is 5.69. On to `O=C(O)CSc1nnc(-c2ccc(-c3ccc(C(F)(F)F)nc3)o2)[nH]1` [Compound 1-90], for which the pIC50 was 5.69. Consider `O=C(O)CSc1nnc(-c2ccc(-c3ccc(Cl)nc3)o2)[nH]1` [Compound 1-91], for which the pIC50 is 5.68. As for `Nc1cc(-c2ccc(-c3nnc(SCC(=O)O)[nH]3)o2)ccn1` [Compound 1-92, 2-((5-(5-(2-aminopyridin-4-yl)furan-2-yl)-4H-1,2,4-triazol-3-yl)thio)acetic acid], the pIC50 was 5.66.
